In patent publication US11135228B2, “Cysteinyl-proresolving mediators that promote resolution of infection and organ protection” (THE BRIGHAM AND WOMEN'S HOSPITAL, priority 2014, dated 2021):

Legend:
[1] = test system: Planaria (Dugesia japonica); test: Planaria tissue regeneration after surgical injury (head resection), tissue regeneration index; type: in vivo; settings: surgically injured planaria vs vehicle
Experimental: (§1) Planaria regeneration: Planaria (Dugesia japonica; Dj) were kept in water (Poland Spring) at 18° C. All animals were starved for at least 7 days prior to experiments. Tissue regeneration was assessed as in (12). Briefly, planaria were subject to head resection post-occularly (surgical Injury). The posterior portions of the planaria were then placed in spring water containing 0.01% EtOH, SPE-C isolate fraction 2 from resolving exudates or milk at the indicated dilutions, U0126 (Extracellular signal-regulated kinases (ERK) inhibitor; Cell Signaling Technology; 25 μM (16)), U0126 plus resolving exudates SPE-C isolates fraction 2, SCI (100 nM), SCII (100 nM), lipoxygenase inhibitor (baicalein, 10 μM) or lipoxygenase inhibitor plus SCI and SCII (100 nM). The extent of tissue regeneration during a 6-day period for D. japonica was determined using captured images of the regenerating blastemas at regular intervals (24 h). These images were analyzed using ImageJ software. A tissue regeneration index (TRI) was employed that took into consideration the size of the regenerated tissue total area (A) and the post-ocular width W of the animal, where TRI=A/W. In determined experiments, planaria were injured and incubated in water, containing 10^8CFU E. coli (serotype O6:K2:H1) or with E. coli plus SCI and SCII (100 nM), and tissue regeneration indices assessed as described above.
Planaria regeneration: Planaria (Dugesia japonica) were kept in water (Poland. Spring; Nestlé Waters North America, Stamford, Conn., USA) at 18° C. All animals were starved for at least 7 d before the experiments. Tissue regeneration was assessed as described previously (10). In brief, planaria were subjected to head resection postoccularly (surgical injury). The posterior portions of the planaria were then placed in spring water containing 0.01% EtOH, 16-glutathionyl, 17-hydroxyl-4Z,7Z,10,12,14,19Z-docosahexaenoic acid plus 16-cysteinylglycinyl, 7-hydroxyl-4Z,7Z,10,12,14,19Z-docosahexaenoic acid (50 nM; each) or 8-gutathionyl, 7,17-dihydroxyl-4Z9,11,13Z,15E,19Z-docosahexaenoic acid plus 8-cysteinylglycinyl, 7,17-dihydroxyl-4Z,9,11,13Z,15E,19Z-docosahexaenoic acid (50 nM, each). The extent of tissue regeneration during a 6-d period was determined using captured images of the regenerating blastemas at regular intervals (24 h). These images were analyzed using ImageJ software (NIH, Bethesda, Md., USA). A tissue regeneration index (TRI) was used that took into consideration the size of the regenerated tissue total area (A) and the postocular width (W), where TRI=A/W (10).

LOX = test: SC levels in regenerating planaria with lipoxygenase inhibitor (LC-MS-MS); type: in vivo, Dugesia japonica; settings: measured 3 days post-surgery
Experimental: as §1, with “The posterior portions of the planaria were then placed in spring water containing 0.01% EtOH, SPE-C isolate fraction 2 from resolving exudates or milk at the indicated dilutions, U0126 (Extracellular signal-regulated kinases (ERK) inhibitor; Cell Signaling Technology; 25 μM (16)), U0126 plus resolving exudates SPE-C isolates fraction 2, SCI (100 nM), SCII (100 nM), lipoxygenase inhibitor (baicalein, 10 μM) or lipoxygenase inhibitor plus SCI and SCII (100 nM).” left out
Lipid mediator metabololipidomics and isolation of bioactive fractions: Peritoneal exudates and exudate cell incubations were immediately placed in 2 volumes of methanol. For lipid mediator profiling, 500 pg each of deuterium-labeled internal standards: d8-5S-HETE, d4-LTB4, d5-LXA4, d4-PGE2, and d5-LTC4 were added to facilitate quantification in each respective chromatographic region and sample recovery. […]

[2] = test system: Mice (zymosan peritonitis); test: Zymosan peritonitis in mice: leukocyte counts and exudate eicosanoids; type: in vivo, mouse; settings: i.p. prior to 1 mg zymosan; 4 h; MaR1 10 ng
Experimental: In determined experiments, mice were administered SC isolates from regenerating planaria i.p., obtained as described in the lipid mediator metabololipidomics and isolation of bioactive fractions section below, immediately prior to zymosan administration (i.p. 1 mg/mouse). After 4 h, peritoneal exudates were obtained, leukocytes enumerated as detailed above and eicosanoid levels assessed by lipid mediator metabololipidomics as described below.

SMILES: O=c1cc(-c2ccccc2)oc2cc(O)c(O)c(O)c12 [baicalein, reference compound]
- tissue regeneration / head regrowth (in words) [1]: significantly delayed head regrowth
- levels of both SCI and SCII (LOX): reduced

SMILES: CC/C=C\C/C=C\C[C@H](O)\C=C/C=C/C=C/[C@H](O)C/C=C\CCC(=O)O [MaR1, 7R,14S-dihydroxy-docosa-4Z,8E,10E,12Z,16Z,19Z-hexaenoic acid]
- tissue regeneration / head regrowth (in words) [1]: accelerated this process to essentially the same extent
- exudate eicosanoid levels including LTB4 and thromboxane (Tx) B2 [2]: shared
- neutrophil recruitment in murine peritonitis [2]: shared
